In US9464057B2, “Anti-malarial agents” (MMV MEDICINES FOR MALARIA VENTURE, priority 2013, dated 2016):
Where two headings read alike, the source gives them in different places.

What was measured:
[1] = system: multidrug-resistant P. falciparum line Dd2; test: P. falciparum growth inhibition by 3H-hypoxanthine incorporation; format: cell-based; settings: Plasmodium falciparum
Method: The ability of pyrazole derivatives according to the invention to kill P. falciparum parasites and/or to inhibit its proliferation is assayed through their ability to inhibit Plasmodium falciparum growth determined by 3H-hypoxanthine incorporation. The assay is derived from the method originally described by Desjardin et al., 1979, Antimicrob. Agents Chemother, 16: 710-718 which was modified. The method assesses parasite growth as reflected by incorporation of radiolabeled hypoxanthine by parasites. P. falciparum in culture are exposed to graded dilutions of test compounds for 48 h and incorporation of 3H-hypoxanthine over the last 24 h into parasite nucleic acids is determined by liquid scintillation spectroscopy. The specific method is described below: The test compounds are diluted by three-fold serial dilutions, in triplicate wells, using low hypoxanthine medium (LHM) RPMI (Roswell Park Memorial Institute medium), 1640, 0.5% Albumax, 0.2% sodium bicarbonate, 0.025M HEPES, 2 mM glutamine, 50 μg/ml Gentamicin, 2.5 μg/ml hypoxanthine, pH 7.35) in sterile flat-bottomed 96 well plates. Final volume in each well is 100 μl. Triplicate control wells contain 100 μl LHM without any inhibitor.
The mixed stage parasitized red blood cells (RBCs), containing greater than 50% ring stage parasites, are diluted to 1% parasitemia using uninfected RBCs, washed two times with LHM, and diluted to 3% hematocrit with LHM. 100 μl of diluted parasites is added to each well. Thus, the final hematocrit is 1.5% with 0.5% parasitemia at the beginning of the assay.
The plates comprising the test wells are placed in a humidified chamber, gassed with 5% CO2, 5% O2, 90% N2, and placed in a 36.5° C. incubator for 24 h. After 24 h incubation, 0.25 μCi of 3H-hypoxanthine in 20 μL LHM is added to each well. Plates are returned to the chamber, gassed, and incubated for an additional 24 h. At the end of the second 24 h incubation, plates are transferred to a −80° C. freezer and stored for a minimum of 2 h. then Plates are thawed and the lysed material is transferred to EasyTabC glass fiber filters (Perkin Elmer; PE) using a Packard Filtermate 196 Cell Harvester. Filters are dried, placed in an Omnifilter Cassette (Perkin Elmer), and 30 μl of Microscint-O-high efficiency liquid scintillation cocktail (PE) is added to each 3 well. The plates are sealed with a Top-Seal for 96 well microplates (Perkin Elmer) and counted using a Packard TopCount-1 microplate liquid scintillation counter. Results are tabulated and graphed using Prism GraphPad software to determine effective EC50 values (concentration at which 50% parasite growth inhibition occurs).

[2] = system: Plasmodium falciparum Pf3D70087/N9; test: in vivo therapeutic efficacy, 4-day-test in humanized mice; parameters: species or system NOD-scidIL2Rγnull mice engrafted with human erythrocytes; settings: single oral dose per day for four consecutive days; for ED50: 50% inhibition of blood parasitemia by flow cytometry; for ED90: 90% inhibition of blood parasitemia by flow cytometry
Method: The ability of pyrazole derivatives according to the invention to show antimalarial efficacy in vivo can be tested by using the protocols described by Jimenez-Diaz et al., 2009, Antimicrob. Agents Chemother., 53:4533-4536. The therapeutic efficacy of compounds of invention against Plasmodium falciparum Pf3D70087/N9 growing in peripheral blood of NOD-scidIL2Rγnull mice engrafted with human erythrocytes. Efficacy is assessed by administering varying amounts of single oral doses of compounds per day for four consecutive days (4-day-test) and measuring their effect on blood parasitemia by flow cytometry. This assay provides effective doses of compounds capable of inhibiting 50% (ED50) and 90% (ED90) levels of parasitemia.

[3] = system: field isolates of Plasmodium vivax; test: ex vivo parasite growth inhibition assay, field isolates of Plasmodium vivax; format: cell-based; settings: P. vivax field isolates (15 isolates), read-out: Median EC50
Text: (§1) Compound 2 has also been tested against field isolates of Plasmodium falciparum (15 isolates) and Plasmodium vivax (15 isolates) using an ex vivo parasite growth inhibition assay as described in Marfurt et al., 2011, Antimicrob Agents Chemother., 55(3): 961.

[4] = system: field isolates of Plasmodium falciparum; test: ex vivo parasite growth inhibition assay, field isolates of Plasmodium falciparum; format: cell-based; settings: P. falciparum field isolates (15 isolates), read-out: Median EC50
Text: as §1

[5] = P. falciparum Dd2, 48 h exposure, 3H-hypoxanthine incorporation over last 24 h, read-out: EC50 (concentration at which 50% parasite growth inhibition occurs)
[6] = DD2, read-out: EC50 (concentration at which 50% parasite growth inhibition occurs)

| SMILES | EC50 [1, 5] [nM] | EC50 [1, 6] [nM] | ED50 [2] [mg/kg per day] | ED90 [2] [mg/kg per day] | EC50 [3] [nM] | EC50 [4] [nM] |
| --- | --- | --- | --- | --- | --- | --- |
| C[C@@H]1CC[C@H]2[C@@H](C)C(=O)O[C@@H]3O[C@@]4(C)CC[C@@H]1[C@]32OO4 [Artemisinin, reference compound] | 12 |  |  |  |  |  |
| Cc1nn(C)c(NC(=O)C[C@H](N)Cc2ccc(F)cc2)c1-c1ccc(F)cc1 [Compound 4, (R)-3-amino-4-(4-fluorophenyl)-N-(4-(4-fluorophenyl)-1,3-dimethyl-1H-pyrazol-5-yl) butanamide] |  | 8 | 3.0 | 4.1 |  |  |
| COc1ccc(-c2c(C(F)(F)F)nn(C)c2NC(=O)Nc2ccc(F)cc2F)cc1 [Reference 1, reference compound] | 150 |  |  |  |  |  |
| CC(C)c1nc2ccccc2n1CC(=O)Nc1c(-c2ccc(Cl)cc2F)c(C(F)(F)F)nn1C [Compound 1, N-(4-(4-chloro-2-fluorophenyl)-3-(trifluoromethyl)-1-methyl-1H-pyrazol-5-yl)-2-(2-isopropyl-1H-benzo[d]imidazol-1-yl)acetamide] |  | 0.7 | 0.53 | 0.94 |  |  |
| Cn1nc(C(F)(F)F)c(-c2ccc(Br)cc2)c1NC(=O)Cc1ccccc1F [Reference 2, reference compound] | 50 |  |  |  |  |  |
| O=C1C(O)=C([C@H]2CC[C@H](c3ccc(Cl)cc3)CC2)C(=O)c2ccccc21 [Atovaquone, reference compound] | 1 |  |  |  |  |  |
| Cn1nc(C(F)(F)F)c(-c2ccc(F)cc2)c1NC(=O)C[C@H](N)Cc1ccc(F)cc1 [Compound 3, (R)-3-amino-N-(3-(trifluoromethyl)-4-(4-fluorophenyl)-1-methyl-1H-pyrazol-5-yl)-4-(4-fluorophenyl)butanamide] |  | 0.2 | 1.8 | 3.0 |  |  |
| CCN(CC)CCCC(C)Nc1ccnc2cc(Cl)ccc12 (stereo not shown) [Chloroquine, reference compound] |  |  | 4.3 |  |  |  |
| Cc1nn(C)c(NC(=O)Cn2c(C(C)C)nc3ccccc32)c1-c1ccc(Cl)cc1F [Compound 2, N-(4-(4-chloro-2-fluorophenyl)-1,3-dimethyl-M-pyrazol-5-yl)-2-(2-isopropyl-M-benzo[d]imidazol-1-yl)acetamide] |  | 5.4 | 1.7 | 2.5 | 10 | 15 |
